Measured values from paper PMC10017027, “Design and Synthesis of Novel HIV-1 NNRTIs with Bicyclic Cores and with Improved Physicochemical Properties” (Journal of Medicinal Chemistry, 2023).
Converted amounts (≈) assume the structure as drawn. Like-named read-outs stand apart in the source and are kept apart here.

How the values were obtained:
[1] = MDCK permeability assay (A to B); type: in vitro ADME, Canine; settings: dog, MDCK
Excerpt: Compounds were further tested in a Madin–Darby Canine Kidney (MDCK) assay to evaluate their potential for oral absorption. […] Additionally, there was no trend for better permeability when comparing arm I versus arm II when matched with the same core. The size of the B ring had the greatest influence on Papp with the trend being five-membered > six-membered > seven-membered rings (Table 1).
cMdr1-KO cells were maintained in Dulbecco’s modified Eagle’s medium (DMEM) with sodium pyruvate and GlutaMax, supplemented with 1% Pen/Strep and 10% fetal bovine serum in an incubator set at 37 °C, 90% humidity, and 5% CO2. MDCKII- cMdr1-KO cells were grown to confluence over 3 days on 96-well PET plates with 1 μm pore size, polyester membrane (Corning 3392). Experiments were run using HBSS donor buffer from Invitrogen containing an additional 10 mM HEPES, 15 mM glucose, and 0.1% BSA adjusted to pH 7.4. The receiver well had HBSS buffer supplemented with 1% BSA, 10 mM HEPES, 15 mM glucose, and the pH was adjusted to 7.4. TEER values were read to test membrane integrity at the beginning of the assay. The experiment was started by the addition of dosing solutions containing test compounds. Samples were taken from the donor compartment at 0/120 min and from the receiver compartment at 120 min. Each compound was tested in two separate replicate wells. All samples were immediately collected in a 72:8:20 MeCN/MeOH:H2O mix to precipitate protein and stabilize the test compounds. Cells were dosed on the apical side to determine forward (A to B) permeability. To test for non-specific binding and compound instability, the total amount of drug was quantified at the end of the experiment and compared to the material present in the original dosing solution as a percentage of recovery. Samples were analyzed by RF-QToF.

[2] = in vitro; type: cell-based; settings: human
Protocol: (§1) The prepared compounds were tested for their anti-HIV-1 activity (Table 1). A viral cytopathic effect assay in MT-4 cells with HIV-1 IIIB virus was used to determine compound potency (EC50, 50% cell viability) in protecting virus induced cell killing. Compound cytotoxicity was assessed in MT-4 cells in the absence of virus (CC50, 50% cytotoxicity). […] ETV contains bromo and amino substitutions on the DAPY core. […] Likely, with the smaller cyano arm I in 1, 3, and 5, the cores could be further elaborated to optimize the compound position in the pocket and to improve potency.
(§2) Compounds were tested in a high-throughput 384-well assay format for their ability to inhibit the virus replication-induced cytopathic effect in MT-4 cell cultures acutely infected with HIV-1 (IIIB strain), HXB2, HXB2-K103N, and HXB2-Y181C. Compounds were serially diluted (1:3) in DMSO on 384-well polypropylene plates and further diluted 200-fold into complete RPMI media (10% FBS, 1% P/S) using Biotek Micro Flow and an Agilent ECHO acoustic dispenser. Each plate contained up to eight test compounds, with negative (no drug control) and 5 μM AZT positive controls. MT-4 cells were further diluted in complete RPMI media and added to each plate using a Micro-Flo dispenser. After five days of incubation in a humidified and temperature-controlled incubator (37 °C), Cell Titer Glo (Promega) was added to the assay plates to quantify the amount of […]. EC50 and CC50 values were defined as the compound concentration that causes a 50% decrease in luminescence signal and were calculated using a sigmoidal dose-response model to generate curve fits.

[3] = Predicted clearance in human liver microsomes; type: in vitro ADME; settings: pH 7.4, 1 μM compound, read-out: HLM CLint, pred (converted)
Protocol: Next, microsome stability was profiled in purified human liver microsomes (HLM).
Metabolic stability of compounds was assessed using HLM (Corning cat. 457117).[52] In this assay, 10 nL compounds at a concentration of 1 mM in 100% DMSO are dispensed into 384-well polypropylene plates using the Echo 550 acoustic liquid dispenser (Labcyte). Each plate contains 384 wells with a single test compound in each well.
A solution of HLM at 2 mg/mL in 100 mM K2HPO4/KH2PO4 pH 7.4 with 0.0225 mg/mL Alamethicin from Trichoderma viride (Sigma-Aldrich cat. A4665-10MG) was incubated on ice for 15 min. 5 μL of this solution was added to individual wells following 15 min incubation at room temperature; and supplemented with 5 μL NADPH Regenerating Solution of cofactors (Corning Gentest UGT Reaction Mix solutions A and B, cat. 451200 and 451220) containing 100 mM K2HPO4/KH2PO4 pH 7.4, 2.6 mM NADP^+, 6.6 mM glucose-6-phosphate, 6.6 mM MgCl2, 0.8 U/mL glucose-6-phosphate dehydrogenase, 0.1 mM sodium citrate, and 6.8 mM uridine diphosphate-glucuronic acid. The final concentration of analyte compounds at the beginning of the reactions was 1 μM. The reactions were incubated at 37 °C, and time points of 0, 5, 15, 30, 40, 50, 60, and 70 min were collected for further analysis. Background data were collected using reactions without analyte compounds.
Upon collection of the reaction time points, samples were quenched at the set time points with 30 μL of a solution of 72% acetonitrile, 8% methanol, 0.1% formic acid, 19.9% water, and labetalol as an internal standard (IS) at a concentration of 650 nM. Reaction plates were span in a centrifuge at a speed of 4000 rcf for 30 min and 4 °C, following a dilution of the 10 μL quenched reaction into 40 μL de-ionized water, yielding assay plates.
Samples were analyzed by a solid-phase extraction coupled with a quadrupole time-of-flight mass spectrometer, using an Agilent QToF 6530 RapidFire 360 system with C4 type A solid state cartridges. Analysis was performed in either positive or negative ionization modes. Mobile phases contained 0.1% formic acid in water for loading analytes onto solid state extraction cartridges, and 0.1% formic acid in acetonitrile for elution into the mass spectrometer in positive ionization mode, or 0.1% acetic acid in water for loading and 0.1% acetic acid in acetonitrile for extraction in negative ionization mode. Peak-area ratios of integrated counts for individual compounds to IS were plotted as a semi-logarithmic chart of log versus time. Initial, linear portion of decay was fitted to a linear regression equation to derive the half-time of a compound decay.
Pharmacological parameters for an analyte compound metabolism were calculated using the equations described in Table S2.
Table S2. Pharmacological parameters for an analyte compound metabolism were
calculated using the following equations:
Intrinsic Clearance (in Cl = ln 2
int, in vitro T1/2 ∗ Conc
Intrinsic Clearance Cl = Clint, in vitro ∗ Liver Mass ∗ Yield
Predicted Hepatic Cl = Clint ∗ QH
QH (Hepatic Blood Flow) = 1.3 L/hr/kg

[4] = tested on: HIV-1 HXB2; assay: MT-4 antiviral cytopathic effect assay, HXB2 wild-type virus; type: cell-based; settings: Human immunodeficiency virus 1, MT4; HIV-1 HXB2 wild-type, MT-4 cells; read-out: EC50 HXB2
Protocol: (§3) The prepared compounds were tested for their anti-HIV-1 activity (Table 1). A viral cytopathic effect assay in MT-4 cells with HIV-1 IIIB virus was used to determine compound potency (EC50, 50% cell viability) in protecting virus induced cell killing. Compound cytotoxicity was assessed in MT-4 cells in the absence of virus (CC50, 50% cytotoxicity).
as §2

[5] = tested on: HIV-1 HXB2 K103N variant; assay: MT-4 antiviral cytopathic effect assay, HXB2-K103N; type: cell-based; settings: for EC50: Human immunodeficiency virus 1, HXB2, read-out: EC50 K103N
Protocol: as §1, §2

[6] = Solubility assessment, shake-flask method; type: physicochemical; settings: for solubility: shake-flask; for HCl sol / PBS sol: supplement CSV
Protocol: Compound solubility was measured at Analiza (Cleveland, OH) by the standard shake-flask method at pH 1.2 and 7.4 and quantitated by HPLC-UV.

[7] = tested on: HIV-1 HXB2 Y181C variant; assay: MT-4 antiviral cytopathic effect assay, HXB2-Y181C; type: cell-based; settings: for EC50: Human immunodeficiency virus 1, HXB2, read-out: EC50 Y181C
Protocol: as §1, §2

[8] = tested on: HIV-1 (IIIB strain); assay: MT-4 antiviral cytopathic effect assay, HIV-1 IIIB; type: cell-based; settings: for EC50: HIV-1 IIIB, WT, read-out: EC50 MT4
Protocol: as §3, §2

[9] = apparent permeability coefficient, A to B, pH 7.4
[10] = fold change: ratio of potency against HXB2 K103N and parental HXB2
[11] = supplement CSV, fold change vs HXB2
[12] = HCl, pH 1.2, read-out: solubility HCl
[13] = phosphate-buffered saline, pH 7.4, read-out: solubility PBS
[14] = fold change: ratio of potency against HXB2 Y181C and parental HXB2
[15] = Human immunodeficiency virus 1, IIIB, MT4, protects 50% of MT-4 cells against HIV-1-induced cell killing
[16] = preliminary biological data, in words

Structure (SMILES) | Papp A→B at 120 min ([1]; supplement CSV) [×10⁻⁶ cm/s] | Papp A→B at 120 min [1, 9] [×10⁻⁶ cm/s] | CC50 at 120 h [2] [nM] | CLint scaled at 1.167 h, 1 µM [3] [mL/min/kg] | EC50 [4] [nM] | EC50 [5] [nM] | K103N (FC) [5, 10] | K103N (FC) [5, 11] | solubility [6, 12] [µM] | solubility [6, 13] [µM] | HCl sol [6] [µM] | PBS sol [6] [µM] | EC50 [7] [nM] | Y181C (FC) [7, 14] | Y181C (FC) [7, 11] | EC50 [8, 15] [nM] | other results
Cc1cc(/C=C/C#N)cc(C)c1-n1c(=O)[nH]c2cnc(Nc3ccc(C#N)cc3)nc21 [Compound 2, 4-[(9-{4-[(1E)-2-Cyanoeth-1-en-1-yl]-2,6-dimethylphenyl}-8-oxo-8,9-dihydro-7H-purin-2-yl)amino]benzonitrile] | 5.6 | 5.6 | 23300 | 16.7 | 2.2 | 4.5 | 2.0 | 2.0 | 61.2 (≈ 24.9 µg/mL) | 10.4 (≈ 4.24 µg/mL) | 61.2 | 10.4 | 10.6 | 4.8 | 4.8 | 2.5 | 
Cc1cc(Br)cc(C)c1N1CC(=O)Nc2cnc(Nc3ccc(C#N)cc3)nc21 [Compound 14, 4-{[8-(4-Bromo-2,6-dimethylphenyl)-6-oxo-5,6,7,8-tetrahydropteridin-2-yl]amino}benzonitrile] |  |  |  |  |  |  |  |  |  |  |  |  |  |  |  |  | potency against K103N mutated strain [5, 16]: high potency; aqueous solubility ([6]; preliminary data, in words): significantly improved; potency against Y181C mutated strain [7, 16]: high potency; activity against the WT virus [8, 16]: low nanomolar activity
Cc1cc(C=O)cc(C)c1-n1c(=O)[nH]c2cnc(Nc3ccc(C#N)cc3)nc21 [Compound 40, 4-{[9-(4-Formyl-2,6-dimethylphenyl)-8-oxo-8,9-dihydro-7H-purin-2-yl]amino}benzonitrile] |  |  |  |  |  |  |  |  |  |  |  |  |  |  |  | 209 | CC50 at 5 days [2]: > 50000 nM
Cc1cc(CO)cc(C)c1N1CC(=O)Nc2cnc(Nc3ccc(C#N)cc3)nc21 [Compound 28, 4-({8-[4-(hydroxymethyl)-2,6-dimethylphenyl]-6-oxo-5,6,7,8-tetrahydropteridin-2-yl}amino)benzonitrile] |  |  | 41600 |  |  |  |  |  |  |  |  |  |  |  |  | 78.9 | 
Cc1cc(C=O)cc(C)c1N1CC(=O)Nc2cnc(Nc3ccc(C#N)cc3)nc21 [Compound 41, 4-{[8-(4-Formyl-2,6-dimethylphenyl)-6-oxo-5,6,7,8-tetrahydropteridin-2-yl]amino}benzonitrile] |  |  | 14200 |  |  |  |  |  |  |  |  |  |  |  |  | 76.7 | 
Cc1cc(CO)cc(C)c1N1CCC(=O)Nc2cnc(Nc3ccc(C#N)cc3)nc21 [Compound 39, 4-({9-[4-(hydroxymethyl)-2,6-dimethylphenyl]-6-oxo-5H,6H,7H,8H,9H-pyrimido[4,5-b][1,4]diazepin-2-yl}amino)benzonitrile] |  |  | 15900 |  |  |  |  |  |  |  |  |  |  |  |  | 198 | 
Cc1cc(/C=C/C#N)cc(C)c1N1CCC(=O)Nc2cnc(Nc3ccc(C#N)cc3)nc21 [Compound 6, 4-[(9-{4-[(1E)-2-Cyanoeth-1-en-1-yl]-2,6-dimethylphenyl}-6-oxo-5H,6H,7H,8H,9H-pyrimido[4,5-b][1,4]diazepin-2-yl)amino]benzonitrile] | 3.1 | 3.1 | 25800 | 12 | 2.8 | 4.8 | 1.7 | 1.7 | 63.3 (≈ 27.6 µg/mL) | 2.3 (≈ 1 µg/mL) | 63.3 | 2.3 | 18.3 | 6.5 | 6.5 | 2.6 to 3 | EC50 ([8]; protects 50% of MT-4 cells against HIV-1-induced cell killing): 3 nM
Cc1cc(C=O)cc(C)c1N1CCC(=O)Nc2cnc(Nc3ccc(C#N)cc3)nc21 [Compound 42, 4-{[9-(4-Formyl-2,6-dimethylphenyl)-6-oxo-5H,6H,7H,8H,9H-pyrimido[4,5-b][1,4]diazepin-2-yl]amino}benzonitrile] |  |  | 5000 |  |  |  |  |  |  |  |  |  |  |  |  | 94.3 | 
Cc1cc(C#N)cc(C)c1-n1c(=O)[nH]c2cnc(Nc3ccc(C#N)cc3)nc21 [Compound 1, 4-{2-[(4-Cyanophenyl)amino]-8-oxo-8,9-dihydro-7H-purin-9-yl}-3,5-dimethylbenzonitrile] | 4.9 | 4.9 | 43700 | 8.83 | 73.7 | 230 | 3.1 | 3.1 | 73.2 (≈ 27.9 µg/mL) | 6.6 (≈ 2.52 µg/mL) | 73.2 | 6.6 | 241 | 3.3 | 3.3 | 62.3 | 
Cc1cc(CO)cc(C)c1-n1c(=O)[nH]c2cnc(Nc3ccc(C#N)cc3)nc21 [Compound 32, 4-({9-[4-(Hydroxymethyl)-2,6-dimethylphenyl]-8-oxo-8,9-dihydro-7H-purin-2-yl}amino)benzonitrile] |  |  | 39700 |  |  |  |  |  |  |  |  |  |  |  |  | 174 | 
